Columns and labels:
fusarium = details: in the literature; cited from earlier work
powdery mildew = experiment: Sprays against powdery mildew infestations on nursery grown plants; format: in vivo; details: for eliminating infestations of powdery mildew: single ingredient sprayed at 1 tablespoon per gallon of water, nursery grown roses, gerbera daisies, ornamental peas, trumpet vines, chrysanthemums, grapevines
Source text: One hundred grams of potassium bicarbonate is blended with one hundred grams of carrageenan.

[1] = tested on: Tomato Russet Mite (Aculops lycopersici); details: sprays on young tomato plants naturally infested
Source text: Fifty grams of potassium sorbate and fifty grams of sodium bicarbonate are mixed with one hundred grams of carrageenan.

Row | Compound | efficacy against fusarium, each product separately (fusarium) | effect on powdery mildew that had overwintered on ornamental pea leaves (powdery mildew; overwintered powdery mildew, ornamental pea leaves) | eliminating infestations of powdery mildew (powdery mildew) | effect on Tomato Russet Mites [1]
1 | O=C([O-])O.[K+] [potassium bicarbonate] | shown efficacy |  |  | 
2 | O=C([O-])O.[Na+] [sodium bicarbonate] |  | unaffected | ineffective | 
3 | C/C=C/C=C/C(=O)[O-].[K+] [potassium sorbate] |  |  | ineffective | no effect

From US20200323215A1, “PESTICIDE FORMULATIONS DERIVED FROM COMBINATIONS OF CARRAGEENANS, SORBIC ACIDS, AND BICARBONATES” (Circadian Crop Sciences LLC, priority 2019, published 2020)
